Test results from article PMC10743905, “Design, Synthesis, and In Vitro and In Vivo Bioactivity Studies of Hydrazide–Hydrazones of 2,4-Dihydroxybenzoic Acid” (International Journal of Molecular Sciences, 2023).
Values after ≈ are worked out from the molar mass of the structure shown.

Each molecule was assayed on Salmonella typhimurium ATCC 14028 (assay: Broth microdilution MIC/MBC). Conditions: not given.
Assay type: cell-based
In short: (§1)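 Minimal inhibitory concentrations are determined by broth microdilution following EUCAST and CLSI. DMSO-dissolved compounds are serially halved from 1000 to 0.488 µg/ml final; inocula are 0.5 McFarland.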

SMILES	MBC/MIC
O=C(N/N=C/c1ccccc1[N+](=O)[O-])c1ccc(O)cc1O [Compound 19, 2,4-dihydroxy-N-[(2-nitrophenyl)methylidene]benzohydrazide]	> 1

Same assay, conditions: Salmonella enterica

SMILES	MBC [µg/mL]	MIC [µg/mL]
O=C(N/N=C/c1ccccc1[N+](=O)[O-])c1ccc(O)cc1O [Compound 19, 2,4-dihydroxy-N-[(2-nitrophenyl)methylidene]benzohydrazide]	> 1000	1000 (≈ 3.32 mM)
O=C(N/N=C/c1cccc([N+](=O)[O-])c1)c1ccc(O)cc1O [Compound 20, 2,4-dihydroxy-N-[(3-nitrophenyl)methylidene]benzohydrazide]		> 1000

Each molecule was assayed on Staphylococcus aureus ATCC 43300 (assay: Broth microdilution MIC/MBC). Conditions: Staphylococcus aureus ATCC 43300 (MRSA).
Assay type: cell-based
In short: as §1

SMILES	MBC [µg/mL]	MBC/MIC	MIC [µg/mL]
O=C(N/N=C/c1ccccc1[N+](=O)[O-])c1ccc(O)cc1O [Compound 19, 2,4-dihydroxy-N-[(2-nitrophenyl)methylidene]benzohydrazide]	> 1000	> 2	500 (≈ 1.66 mM)
O=C(N/N=C/c1cccc([N+](=O)[O-])c1)c1ccc(O)cc1O [Compound 20, 2,4-dihydroxy-N-[(3-nitrophenyl)methylidene]benzohydrazide]			> 1000

The molecules below were run on Proteus mirabilis ATCC 12453 (assay: Broth microdilution MIC/MBC). Conditions: not given.
Assay type: cell-based
In short: as §1

SMILES	MBC/MIC
O=C(N/N=C/c1ccccc1[N+](=O)[O-])c1ccc(O)cc1O [Compound 19, 2,4-dihydroxy-N-[(2-nitrophenyl)methylidene]benzohydrazide]	> 1

Same assay, conditions: ATCC12453

SMILES	MBC [µg/mL]	MIC [µg/mL]
O=C(N/N=C/c1ccccc1[N+](=O)[O-])c1ccc(O)cc1O [Compound 19, 2,4-dihydroxy-N-[(2-nitrophenyl)methylidene]benzohydrazide]	> 1000	1000 (≈ 3.32 mM)
O=C(N/N=C/c1cccc([N+](=O)[O-])c1)c1ccc(O)cc1O [Compound 20, 2,4-dihydroxy-N-[(3-nitrophenyl)methylidene]benzohydrazide]		> 1000

Each molecule was assayed on Micrococcus luteus ATCC 10240 (assay: Broth microdilution MIC/MBC). Conditions: not given.
Assay type: cell-based
In short: as §1

SMILES	MBC/MIC
O=C(N/N=C/c1ccccc1[N+](=O)[O-])c1ccc(O)cc1O [Compound 19, 2,4-dihydroxy-N-[(2-nitrophenyl)methylidene]benzohydrazide]	> 1

Same assay, conditions: ATCC10240

SMILES	MBC [µg/mL]
O=C(N/N=C/c1ccccc1[N+](=O)[O-])c1ccc(O)cc1O [Compound 19, 2,4-dihydroxy-N-[(2-nitrophenyl)methylidene]benzohydrazide]	> 1000

Same assay, conditions: ATCC10240, read-out: MIC

SMILES	MIC [µg/mL]
O=C(N/N=C/c1ccccc1[N+](=O)[O-])c1ccc(O)cc1O [Compound 19, 2,4-dihydroxy-N-[(2-nitrophenyl)methylidene]benzohydrazide]	1000 (≈ 3.32 mM)
O=C(N/N=C/c1cccc([N+](=O)[O-])c1)c1ccc(O)cc1O [Compound 20, 2,4-dihydroxy-N-[(3-nitrophenyl)methylidene]benzohydrazide]	> 1000

These molecules were tested on Pseudomonas aeruginosa ATCC 9027 (assay: Broth microdilution MIC/MBC). Conditions: not given.
Assay type: cell-based
In short: as §1

SMILES	MBC/MIC
O=C(N/N=C/c1ccccc1[N+](=O)[O-])c1ccc(O)cc1O [Compound 19, 2,4-dihydroxy-N-[(2-nitrophenyl)methylidene]benzohydrazide]	> 1

Same assay, conditions: ATCC9027

SMILES	MBC [µg/mL]	MIC [µg/mL]
O=C(N/N=C/c1ccccc1[N+](=O)[O-])c1ccc(O)cc1O [Compound 19, 2,4-dihydroxy-N-[(2-nitrophenyl)methylidene]benzohydrazide]	> 1000	1000 (≈ 3.32 mM)
O=C(N/N=C/c1cccc([N+](=O)[O-])c1)c1ccc(O)cc1O [Compound 20, 2,4-dihydroxy-N-[(3-nitrophenyl)methylidene]benzohydrazide]		> 1000

Each molecule was assayed on Staphylococcus epidermidis ATCC 12228 (assay: Broth microdilution MIC/MBC). Conditions: not given.
Assay type: cell-based
In short: as §1

SMILES	MBC/MIC
O=C(N/N=C/c1ccccc1[N+](=O)[O-])c1ccc(O)cc1O [Compound 19, 2,4-dihydroxy-N-[(2-nitrophenyl)methylidene]benzohydrazide]	> 2

Same assay, conditions: ATCC12228

SMILES	MBC [µg/mL]
O=C(N/N=C/c1ccccc1[N+](=O)[O-])c1ccc(O)cc1O [Compound 19, 2,4-dihydroxy-N-[(2-nitrophenyl)methylidene]benzohydrazide]	> 1000

Same assay, conditions: ATCC12228, read-out: MIC

SMILES	MIC [µg/mL]
O=C(N/N=C/c1ccccc1[N+](=O)[O-])c1ccc(O)cc1O [Compound 19, 2,4-dihydroxy-N-[(2-nitrophenyl)methylidene]benzohydrazide]	500 (≈ 1.66 mM)
O=C(N/N=C/c1cccc([N+](=O)[O-])c1)c1ccc(O)cc1O [Compound 20, 2,4-dihydroxy-N-[(3-nitrophenyl)methylidene]benzohydrazide]	> 1000

What follows are molecules tested on Staphylococcus aureus ATCC 29213 (assay: Broth microdilution MIC/MBC). Conditions: not given.
Assay type: cell-based
In short: as §1

SMILES	MBC/MIC
O=C(N/N=C/c1ccccc1[N+](=O)[O-])c1ccc(O)cc1O [Compound 19, 2,4-dihydroxy-N-[(2-nitrophenyl)methylidene]benzohydrazide]	> 1

Same assay, conditions: ATCC29213

SMILES	MBC [µg/mL]	MIC [µg/mL]
O=C(N/N=C/c1ccccc1[N+](=O)[O-])c1ccc(O)cc1O [Compound 19, 2,4-dihydroxy-N-[(2-nitrophenyl)methylidene]benzohydrazide]	> 1000	1000 (≈ 3.32 mM)
O=C(N/N=C/c1cccc([N+](=O)[O-])c1)c1ccc(O)cc1O [Compound 20, 2,4-dihydroxy-N-[(3-nitrophenyl)methylidene]benzohydrazide]		> 1000

What follows are molecules tested on Candida glabrata ATCC 90030 (assay: Broth microdilution MIC/MFC). Conditions: not given.
Assay type: cell-based
In short: as §1

SMILES	MFC/MIC
O=C(N/N=C/c1ccccc1[N+](=O)[O-])c1ccc(O)cc1O [Compound 19, 2,4-dihydroxy-N-[(2-nitrophenyl)methylidene]benzohydrazide]	> 2

Same assay, conditions: Nakaseomyces glabratus, ATCC90030, read-out: MFC

SMILES	MFC [µg/mL]
O=C(N/N=C/c1ccccc1[N+](=O)[O-])c1ccc(O)cc1O [Compound 19, 2,4-dihydroxy-N-[(2-nitrophenyl)methylidene]benzohydrazide]	> 1000

Same assay, conditions: Nakaseomyces glabratus, ATCC90030, read-out: MIC

SMILES	MIC [µg/mL]
O=C(N/N=C/c1ccccc1[N+](=O)[O-])c1ccc(O)cc1O [Compound 19, 2,4-dihydroxy-N-[(2-nitrophenyl)methylidene]benzohydrazide]	500 (≈ 1.66 mM)
O=C(N/N=C/c1cccc([N+](=O)[O-])c1)c1ccc(O)cc1O [Compound 20, 2,4-dihydroxy-N-[(3-nitrophenyl)methylidene]benzohydrazide]	> 1000

Each molecule was assayed on Candida albicans ATCC 2091 (assay: Broth microdilution MIC/MFC). Conditions: not given.
Assay type: cell-based
In short: as §1

SMILES	MFC/MIC
O=C(N/N=C/c1ccccc1[N+](=O)[O-])c1ccc(O)cc1O [Compound 19, 2,4-dihydroxy-N-[(2-nitrophenyl)methylidene]benzohydrazide]	> 2

Same assay, conditions: ATCC2091, read-out: MFC

SMILES	MFC [µg/mL]
O=C(N/N=C/c1ccccc1[N+](=O)[O-])c1ccc(O)cc1O [Compound 19, 2,4-dihydroxy-N-[(2-nitrophenyl)methylidene]benzohydrazide]	> 1000

Same assay, conditions: ATCC2091, read-out: MIC

SMILES	MIC [µg/mL]
O=C(N/N=C/c1ccccc1[N+](=O)[O-])c1ccc(O)cc1O [Compound 19, 2,4-dihydroxy-N-[(2-nitrophenyl)methylidene]benzohydrazide]	500 (≈ 1.66 mM)
O=C(N/N=C/c1cccc([N+](=O)[O-])c1)c1ccc(O)cc1O [Compound 20, 2,4-dihydroxy-N-[(3-nitrophenyl)methylidene]benzohydrazide]	> 1000

These molecules were tested on Candida albicans ATCC 10231 (assay: Broth microdilution MIC/MFC). Conditions: not given.
Assay type: cell-based
In short: as §1

SMILES	MFC/MIC
O=C(N/N=C/c1ccccc1[N+](=O)[O-])c1ccc(O)cc1O [Compound 19, 2,4-dihydroxy-N-[(2-nitrophenyl)methylidene]benzohydrazide]	> 4
O=C(N/N=C/c1cccc([N+](=O)[O-])c1)c1ccc(O)cc1O [Compound 20, 2,4-dihydroxy-N-[(3-nitrophenyl)methylidene]benzohydrazide]	> 1

Same assay, conditions: ATCC10231, read-out: MFC

SMILES	MFC [µg/mL]
O=C(N/N=C/c1ccccc1[N+](=O)[O-])c1ccc(O)cc1O [Compound 19, 2,4-dihydroxy-N-[(2-nitrophenyl)methylidene]benzohydrazide]	> 1000
O=C(N/N=C/c1cccc([N+](=O)[O-])c1)c1ccc(O)cc1O [Compound 20, 2,4-dihydroxy-N-[(3-nitrophenyl)methylidene]benzohydrazide]	> 1000

Same assay, conditions: ATCC10231, read-out: MIC

SMILES	MIC [µg/mL]
O=C(N/N=C/c1ccccc1[N+](=O)[O-])c1ccc(O)cc1O [Compound 19, 2,4-dihydroxy-N-[(2-nitrophenyl)methylidene]benzohydrazide]	250 (≈ 0.83 mM)
O=C(N/N=C/c1cccc([N+](=O)[O-])c1)c1ccc(O)cc1O [Compound 20, 2,4-dihydroxy-N-[(3-nitrophenyl)methylidene]benzohydrazide]	1000 (≈ 3.32 mM)
